Data taken from patent publication US20070066572A1, “Neuroprotection by positively-charged nitroxides” (priority 2005, published 2007).

Assays:
[1] = tested on: Bovine aortic endothelial cells (BAECs); assay: Glu/GO-induced caspase-3 activity (apoptosis) in BAECs; format: cell-based
Experimental: Cell line: Bovine aortic endothelial cells (BAECs; American Type Culture Collection) were grown to confluence in DMEM (Calbiochem; San Diego, Calif.) containing 10% fetal bovine serum (FBS; Invitrogen; Carlsbad, Calif.) insulin (10 μg/ml; Invitrogen), transferrin (5 μg/ml; Invitrogen), glutamine (4 mM; Sigma-Aldrich), penicillin (100 units/ml; Sigma-Aldrich) and streptomycin (100 μg/ml; Sigma-Aldrich) and were incubated at 37° C. in a humidified atmosphere of 5% CO2 and 95% air. The BAECs were used between passages four and twelve, as described by Balla G, et al., “Ferritin: a cytoprotective antioxidant strategem of endothelium,” J. Biol. Chem. 267:18148-18153 (1992). On the day of treatment, the medium was replaced with DMEM containing 2% FBS.
Glucose/Glucose Oxidase (Glu/GO): GO was obtained from Sigma Aldrich (Milwaukee, Wis.); 13-hydroperoxyoctadecadienoic acid (13-HpODE, a lipoxygenase-catalyzed oxidative metabolite of linolieic acid) and β-hydroxyoctadecadienoic acid (13-HODE, […]) were obtained from Cayman Chemical Co. (Ann Arbor, Mich.); 2′,7′-dichlorodihydrofluorescein diacetate (DCFH-DA) was obtained from Molecular Probes (Eugene, Oreg.); N-carbobenzoxyl-L-leucinyl-L-norleucinal (MG-132) was obtained from Biomol (Plymouth Meeting, Pa.); and clastolactacystin-α-lactone (Lac) was obtained from Sigma Aldrich.
BAECs were incubated with Glu/GO (20 μM), 13-HpODE (25 μM) or 13-HODE (25 μM) for different time periods (0, 2, 4, 8 or 16 hours).
Caspase-3 Activity: After treatment with Glu-GO and antioxidants, cells were washed twice with Dulbecco's phosphate-buffered saline (DPBS) and lysed with cell lysis buffer. Caspase-3 activity was measured with acetyl Asp-Glu-Val-Asp 7-amido-4-methylcoumarin (Ac-DEVD-AFC), as described in a kit from Sigma Aldrich. Caspase-3 hydrolyzes Ac-DEVD-AFC to release a fluorescent moiety, 7-amino-4-methylcoumarin (AMC). Briefly, treated cells were suspended in 100 μl of lysis buffer and passed through a 24-guage needle 10 times to ensure complete lysis. The resulting lysate was centrifuged at 4° C. at 10,000 rmp. […]

hSOD1-G93A mice = assay: In vivo attenuation of ALS symptoms in transgenic G93A-SOD1 mice; conditions: 40 mg/kg or about 1 mg/mouse/day in drinking water
Excerpt: Animal model: A transgenic mouse line overexpressing mutant G93A-SOD1 gene (TgN(SOD1-G93A)1Gur, herein called hSOD1-G93A, a high expression mouse line) and the mating pairs were purchased from Jackson Laboratory (Bar Harbor, Me.). Mice were housed and bred as described previously (Liu R, et al., “Enhanced oxygen radical production in a transgenic mouse model of familial amyotrophic lateral sclerosis,” Ann. Neurol. 44:763-70 (1998)) and in accordance with the University of North Dakota Animal Care and Use Committee guidelines.
At age 40-50 days, transgenic littermates (wild-type normal mice and hSOD1-G93A mice) were divided into three groups (n=10) and administered with vehicle alone (regular drinking water), Mito-Tempol (40 mg/kg or about 1 mg/mouse/day) or Tempol (40 mg/kg or about 1 mg/mouse/day), respectively. The onset of disease was defined as the day when a sharp decrease in muscle strength was detected. The initial symptoms of hind leg paralysis was considered as the disease progression as well.

CC1(C)CC(OCCCCC[P+](c2ccccc2)(c2ccccc2)c2ccccc2)CC(C)(C)N1[O].[Br-] [Mito-Tempol]
Glu/GO-mediated caspase-3 activation ([1]; BAECs pretreated at 0.5 and 1 μM, Glu/GO eight hours, FIG. 5): greatly inhibited | potency in inhibiting peroxide-induced apoptosis relative to Tempol ([1]; BAECs, Glu/GO, FIG. 5): more potent than Tempol | endothelial oxidative damage and apoptosis ([1]; Mito-Tempol prepared by the modified method): inhibited endothelial oxidative damage and apoptosis | disease progression (hSOD1-G93A mice; FIG. 2): delayed disease progression | lifespan (hSOD1-G93A mice; FIG. 3): increased the lifespan | running activity as measured by Rotarod (motor function) (hSOD1-G93A mice; FIG. 4): promoted the running activity
